# Assay results published in patent US6979676B2 (priority 2002, dated 2005).
# Read-outs that look alike come from different tables or passages of the source.
# Tests used:
# [1] = Stability of Formula I in various PG/buffer solutions (HPLC purity, initial point vs 80° C./8 days); format: physicochemical; conditions: initial point and 80° C./8 days
# [2] = Solubility of Formula I in various vehicles; format: physicochemical; conditions: thermodynamic from solid, room temperature after 1 day
# [3] = physchem
# [4] = Degradation rate of Formula I in various pH conditions (T90 at 80° C.); format: physicochemical
# [5] = Stability of Formula I in PG/water or PG/buffers (HPLC purity, initial point vs 80° C./4 days); format: physicochemical; conditions: 5 mg/mL, initial point and 80° C./4 days
# [6] = 50% PG/75 mM citrate buffer (pH = 4)
structure (smiles),measurement,setting,value
"O=C1c2c(c3c4ccc(O)cc4n(C4OC(CO)C(O)C(O)C4O)c3c3[nH]c4cc(O)ccc4c23)C(=O)N1NC(CO)CO [Formula I, 12,13-dihydro-2,10-dihydroxy-6-N-(1-hydroxymethyl-2-hydroxyethylamino)-13-(β-D-glucopyranosyl)-5H-indolo[2,3-α]pyrrolo[3,4-c]carbazole-5,7(6H)-dione]",Stability of Formula I (purity by HPLC),[1]; 50% PG/50 mM citrate buffer (pH = 4),−5.50%
same,Stability of Formula I (purity by HPLC),[1]; 50% PG/50 mM tartrate buffer (pH = 4),−6.12%
same,Stability of Formula I (purity by HPLC),[1]; [6],−6.49%
same,Stability of Formula I (purity by HPLC),[1]; 50% PG/water,−30.68%
same,Stability of Formula I (purity by HPLC),"1 month, 0.15 mg/mL",−0.68%
same,Stability of Formula I (purity by HPLC),"50% PEG 400/water, 10 mg/mL, initial point and 40° C./1 month",−2.9%
same,Stability of Formula I (purity by HPLC),"50% PG/water, 10 mg/mL, initial point and 40° C./1 month",−0.03%
same,solubility at 1 day,"[2]; aqueous buffer, 50 mM citrate buffer (pH = 3)",920 µg/mL
same,solubility at 1 day,"[2]; aqueous buffer, 50 mM citrate buffer (pH = 4)",810 µg/mL
same,solubility at 1 day,"[2]; aqueous buffer, 50 mM citrate buffer (pH = 5)",720 µg/mL
same,solubility at 1 day,"[2]; aqueous buffer, 50 mM citrate buffer (pH = 6)",720 µg/mL
same,solubility at 1 day,"[2]; aqueous buffer, 50 mM citrate buffer (pH = 7)",670 µg/mL
same,solubility at 1 day,"[2]; aqueous with cosolvent or surfactant or cyclodextrin, 25% PEG 400/water (w/v)",16000 µg/mL
same,solubility at 1 day,"[2]; aqueous with cosolvent or surfactant or cyclodextrin, 25% PG/water (w/v)",4000 µg/mL
same,solubility at 1 day,"[2]; aqueous with cosolvent or surfactant or cyclodextrin, 40% PG/water (w/v)",12000 µg/mL
same,solubility at 1 day,"[2]; aqueous with cosolvent or surfactant or cyclodextrin, 50% PEG 400/water (w/v)",25000 µg/mL
same,solubility at 1 day,"[2]; aqueous with cosolvent or surfactant or cyclodextrin, 50% PG/50 mM citrate buffer (pH = 3)",24000 µg/mL
same,solubility at 1 day,"[2]; aqueous with cosolvent or surfactant or cyclodextrin, 50% PG/50 mM citrate buffer (pH = 4)",25000 µg/mL
same,solubility at 1 day,"[2]; aqueous with cosolvent or surfactant or cyclodextrin, 50% PG/50 mM citrate buffer (pH = 5)",26000 µg/mL
same,solubility at 1 day,"[2]; aqueous with cosolvent or surfactant or cyclodextrin, 50% PG/50 mM citrate buffer (pH = 6)",27000 µg/mL
same,solubility at 1 day,"[2]; aqueous with cosolvent or surfactant or cyclodextrin, 50% PG/50 mM citrate buffer (pH = 7)",27000 µg/mL
same,solubility at 1 day,"[2]; aqueous with cosolvent or surfactant or cyclodextrin, 50% PG/water (w/v)",24000 µg/mL
same,solubility at 1 day,"[2]; aqueous with cosolvent or surfactant or cyclodextrin, 75% PEG 400/water (w/v)",24000 µg/mL
same,solubility at 1 day,"[2]; aqueous with cosolvent or surfactant or cyclodextrin, 75% PG/water (w/v)",45000 µg/mL
same,solubility at 1 day,"[2]; organic solvent or mixture, 100% PEG 400",< 670 µg/mL
same,solubility at 1 day,"[2]; organic solvent or mixture, 100% PG",1200 µg/mL
same,solubility at 1 day,"[2]; saline or isotonic, 5% glucose/water",600 µg/mL
same,solubility at 1 day,[2]; water,620 µg/mL
same,solubility,[3]; aqueous with cosolvent or surfactant or cyclodextrin,10000 µg/mL
same,solubility,[3]; saline or isotonic,150 µg/mL
same,T90 (time required to degrade Formula I to 90% of the initial concentration),[4]; pH 2,0.9 days
same,T90 (time required to degrade Formula I to 90% of the initial concentration),"[4]; pH 3, extrapolated data",19 days
same,T90 (time required to degrade Formula I to 90% of the initial concentration),"[4]; pH 4, extrapolated data",89 days
same,T90 (time required to degrade Formula I to 90% of the initial concentration),"[4]; pH 5, extrapolated data",7.8 days
same,T90 (time required to degrade Formula I to 90% of the initial concentration),[4]; pH 6,2.3 days
same,T90 (time required to degrade Formula I to 90% of the initial concentration),[4]; pH 7,0.233 days
same,T90 (time required to degrade Formula I to 90% of the initial concentration),[4]; pH 8,0.0194 days
same,T90 (time required to degrade Formula I to 90% of the initial concentration),[4]; pH 9,0.00486 days
same,T90 (time required to degrade Formula I to 90% of the initial concentration),[4]; pH 10,0.000833 days
same,Stability of Formula I (purity by HPLC),[5]; 50% PG/75 mM citrate buffer (pH = 3),−2.4%
same,Stability of Formula I (purity by HPLC),[5]; [6],−2.2%
same,Stability of Formula I (purity by HPLC),[5]; 50% PG/75 mM citrate buffer (pH = 5),−2.9%
same,Stability of Formula I (purity by HPLC),[5]; 50% PG/water,−9.3%
